Assay results: patent publication US20240082268A1, “METHODS AND COMPOSITIONS FOR CONTROLLING NEUROINFLAMMATION” (Invenux, LLC, priority 2021, published 2024)

Key:
[1] = biological target: CB2 endocannabinoid receptor (Homo sapiens, UniProt P34972); settings: cited from earlier work
[2] = system: GFAP (astrocyte activation); assay: GFAP immunoreactivity in brain slices, mouse model of MPS IIIB; type: in vivo
Experimental: (§1) Brain slices were taken along the rostro caudal axis in a serial section. Quantification using the brain slices was performed using Image Pro Premiere software.
(§2) The breeding pairs of MPS IIIB mice were obtained from Jackson Laboratory (JAX stock #003827) and a MPS IIIB mouse colony was established. In MPS IIIB or Sanfillipo syndrome mice, both alleles of alpha-N-acetylglucosaminidase (NAGLU) are disrupted, knocked out (KO), by insertion of a neomycin resistance gene via homologous recombination. Gografe S I; Garbuzova-Davis S; Willing A E; Haas K; Chamizo W; Sanberg P R. Mouse model of Sanfilippo syndrome type B: relation of phenotypic features to background strain Comp Med 53(6):622-32. […] The heterozygous (Het) mice have only one allele of the NAGLU gene disrupted and can fully metabolize HS.
(§3) FIG. 1A and FIG. 1B show bar graphs of the percentage staining of Cluster of Differentiation 68 (CD68) and glial fibrillary acidic protein (GFAP), respectively, in serial section (one every twelve sections of 40 um thick) along the rostrocaudal axis of the brain after 30 days. […]
(§4) Quantification of brain slices was performed using Image Pro Premiere software.
(§5) After 30 days, animals were sacrificed and brain slices were taken along the rostro caudal axis in a serial section. Quantification was performed using Image Pro Premiere software.

[3] = biological target: voltage-gated sodium channel Nav 1.6 receptor (Homo sapiens, UniProt Q9UQD0); settings: cited from earlier work
Chain of voltage-gated sodium channel Nav 1.6 receptor (Q9UQD0 whole entry): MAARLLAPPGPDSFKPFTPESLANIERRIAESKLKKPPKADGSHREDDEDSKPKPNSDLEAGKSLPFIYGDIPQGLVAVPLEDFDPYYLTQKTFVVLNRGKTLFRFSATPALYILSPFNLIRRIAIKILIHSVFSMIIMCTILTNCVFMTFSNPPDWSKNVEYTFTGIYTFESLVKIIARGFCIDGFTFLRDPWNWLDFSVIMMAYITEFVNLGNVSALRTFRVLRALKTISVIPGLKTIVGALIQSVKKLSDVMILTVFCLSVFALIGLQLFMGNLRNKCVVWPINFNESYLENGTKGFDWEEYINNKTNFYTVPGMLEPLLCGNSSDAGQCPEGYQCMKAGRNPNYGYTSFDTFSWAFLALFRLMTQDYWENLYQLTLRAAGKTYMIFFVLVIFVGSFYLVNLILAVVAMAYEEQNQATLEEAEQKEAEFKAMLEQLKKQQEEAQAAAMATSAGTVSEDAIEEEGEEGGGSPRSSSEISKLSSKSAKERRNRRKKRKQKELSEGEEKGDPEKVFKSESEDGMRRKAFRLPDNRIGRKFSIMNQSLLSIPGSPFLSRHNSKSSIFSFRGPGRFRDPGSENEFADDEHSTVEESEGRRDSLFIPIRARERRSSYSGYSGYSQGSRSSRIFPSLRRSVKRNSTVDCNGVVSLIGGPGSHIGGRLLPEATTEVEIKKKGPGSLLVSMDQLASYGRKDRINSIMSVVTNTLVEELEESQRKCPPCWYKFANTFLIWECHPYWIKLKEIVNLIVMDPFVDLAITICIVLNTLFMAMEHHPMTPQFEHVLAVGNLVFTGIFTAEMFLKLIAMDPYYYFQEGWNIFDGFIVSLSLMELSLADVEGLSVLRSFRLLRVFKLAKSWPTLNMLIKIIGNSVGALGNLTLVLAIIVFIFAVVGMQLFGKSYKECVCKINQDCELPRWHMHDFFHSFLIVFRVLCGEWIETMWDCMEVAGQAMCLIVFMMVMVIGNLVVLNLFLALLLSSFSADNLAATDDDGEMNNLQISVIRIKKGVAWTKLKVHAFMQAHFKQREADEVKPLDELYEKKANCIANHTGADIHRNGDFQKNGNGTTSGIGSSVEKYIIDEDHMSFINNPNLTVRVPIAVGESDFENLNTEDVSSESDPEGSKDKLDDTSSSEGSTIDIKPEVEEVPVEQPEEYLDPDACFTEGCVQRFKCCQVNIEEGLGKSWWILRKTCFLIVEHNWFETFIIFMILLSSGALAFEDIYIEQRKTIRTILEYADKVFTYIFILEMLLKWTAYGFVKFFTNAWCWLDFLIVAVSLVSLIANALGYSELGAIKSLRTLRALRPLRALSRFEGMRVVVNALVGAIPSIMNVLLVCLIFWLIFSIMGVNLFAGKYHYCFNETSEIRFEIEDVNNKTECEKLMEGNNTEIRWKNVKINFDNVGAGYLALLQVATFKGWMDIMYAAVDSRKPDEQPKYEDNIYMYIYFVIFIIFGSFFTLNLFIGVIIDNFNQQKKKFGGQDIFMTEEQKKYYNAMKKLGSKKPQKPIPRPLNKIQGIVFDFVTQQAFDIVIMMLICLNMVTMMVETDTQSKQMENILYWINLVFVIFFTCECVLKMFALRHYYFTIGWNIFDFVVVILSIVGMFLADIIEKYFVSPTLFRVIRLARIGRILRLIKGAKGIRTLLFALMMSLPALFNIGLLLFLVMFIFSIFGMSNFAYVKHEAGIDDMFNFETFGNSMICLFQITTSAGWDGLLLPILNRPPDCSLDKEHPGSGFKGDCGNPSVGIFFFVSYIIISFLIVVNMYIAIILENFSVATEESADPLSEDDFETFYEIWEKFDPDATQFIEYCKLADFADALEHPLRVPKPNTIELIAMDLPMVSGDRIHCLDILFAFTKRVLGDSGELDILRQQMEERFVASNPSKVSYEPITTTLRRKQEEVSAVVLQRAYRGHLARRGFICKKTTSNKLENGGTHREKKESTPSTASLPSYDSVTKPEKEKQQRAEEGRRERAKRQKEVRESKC

MPS IIIB KO mice = assay: Behavioral and cognitive tests in mouse model of MPS IIIB; type: in vivo; settings: MPS IIIB KO mice, 100, 33 or 10 mg/kg/day oral, after 6 months, vs vehicle control
Experimental: CBD or vehicle is administered daily by oral gavage. […] At baseline, and after 3, 6, and 9 months, the mice are given behavioral tests to measure hyperactive and social interaction, and cognitive tests to measure spatial memory and learning deficits.

[4] = system: inflammatory signaling molecules; assay: Inflammatory signaling molecules in plasma and CSF, mouse model of MPS IIIB; type: in vivo; settings: MPS IIIB KO mice, 100, 33 or 10 mg/kg/day oral, after 6 months, vs vehicle control
Description: In particular, less of one or more of IL-1alpha, IL1beta, IL-2, IL-4, IL-6, IL-8, 11-10, IL-17A, IL-23, INF-gamma, MCP-1, caspase-1, caspase-3, TNF-alpha, and TGF-beta-alpha is expected.

[5] = system: CD68 (microglia activation); assay: CD68 immunoreactivity in brain slices, mouse model of MPS IIIB; type: in vivo
Experimental: as §1, §2, §3, §4, §5

[6] = in vivo; cited from earlier work
[7] = 9-month old MPS IIIB KO mice, 100 mg/kg CBD in sesame oil, oral gavage once daily for 30 days, vs KO mice given vehicle
[8] = MPS IIIB KO mice, 100 mg/kg oral, 30 days, representative brain slices

Chain of CB2 endocannabinoid receptor (P34972 whole entry): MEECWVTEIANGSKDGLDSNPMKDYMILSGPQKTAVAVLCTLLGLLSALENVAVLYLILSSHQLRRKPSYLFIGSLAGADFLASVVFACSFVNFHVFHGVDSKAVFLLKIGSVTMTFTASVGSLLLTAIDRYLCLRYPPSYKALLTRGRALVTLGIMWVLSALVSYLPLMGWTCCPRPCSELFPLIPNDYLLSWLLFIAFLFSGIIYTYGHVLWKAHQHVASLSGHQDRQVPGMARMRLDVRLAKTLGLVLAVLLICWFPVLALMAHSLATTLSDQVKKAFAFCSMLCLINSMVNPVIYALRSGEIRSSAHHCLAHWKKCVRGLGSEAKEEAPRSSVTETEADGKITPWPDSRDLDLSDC

Row | Compound | affinity to CB2 receptor [1] | decrease in the immunoreactivity of GFAP (% area) in brain [2, 7] | astrocyte cell neuroinflammation and activation (GFAP) [2, 8] | IC50 [3] | affinity to Nav 1.6 receptor [3] | hyperactivity (MPS IIIB KO mice) | learning deficit (MPS IIIB KO mice) | social interaction (MPS IIIB KO mice) | spatial memory (MPS IIIB KO mice) | inflammatory signaling molecules in plasma and CSF [4] | decrease in the immunoreactivity of CD68 (% area) in brain [5, 7] | microglia cell neuroinflammation and activation (CD68) [5, 8] | crossing of the BBB [6]
1 | C=C(C)[C@@H]1CCC(C)=C[C@H]1c1c(O)cc(CCCCC)cc1O [CBD, Cannabidiol] | uM affinity | 50% | significantly decreases | 1 to 6 µM | uM affinity | less hyperactivity | less learning deficit | more social interaction | less loss of spatial memory | less inflammatory signaling molecules | 30% | significantly decreases | 
2 | Adalimumab |  |  |  |  |  |  |  |  |  |  |  |  | does not cross the BBB
